One test addresses T1, FicD^WT (Homo sapiens, UniProt Q9BVA6).
T1 construct: soluble ER luminal domain (residues 105 to 458) of wild-type human FicD; 6xHis-Sumo (N, cleaved yes); made in house; host or cells: Rosetta(DE3) E. coli
T1 sequence (Q9BVA6 105-458): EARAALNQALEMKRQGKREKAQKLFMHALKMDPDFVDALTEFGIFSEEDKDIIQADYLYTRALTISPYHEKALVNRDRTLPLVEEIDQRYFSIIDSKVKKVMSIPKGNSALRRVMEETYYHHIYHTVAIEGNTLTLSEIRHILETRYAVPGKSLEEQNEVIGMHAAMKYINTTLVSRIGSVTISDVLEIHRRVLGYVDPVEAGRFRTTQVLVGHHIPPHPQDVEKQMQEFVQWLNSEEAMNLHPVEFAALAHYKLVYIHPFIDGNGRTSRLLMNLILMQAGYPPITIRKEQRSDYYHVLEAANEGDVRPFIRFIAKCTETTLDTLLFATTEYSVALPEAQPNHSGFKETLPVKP
In words: MIDAS equilibrium dialysis/mass spectrometry metabolite screen, FicD^WT. It counts as binding. The following applies: cutoff Q < 0.05 and |Log2 corrected fold change| > 2, metabolites 5 µM. (In general: In equilibrium dialysis only unbound substance equilibrates across the membrane.)

For a further test, the target named is T2, FicD^L258D (Homo sapiens, UniProt Q9BVA6, L258D).
T2 construct: soluble ER luminal domain (residues 105 to 458) of wild-type human FicD and three mutants; 6xHis-Sumo (N, cleaved yes); made in house; host or cells: Rosetta(DE3) E. coli
T2 sequence (Q9BVA6 105-458 L258D): T1 sequence (Q9BVA6 105-458) with L154D
The experiment in a line: Differential scanning fluorimetry (DSF) thermal shift with FicD^L258D. It counts as binding. Particulars: for EC50: read-out: EC50 of DSF dose-response (ΔTm). In general terms: Differential scanning fluorimetry follows unfolding on heating by fluorescence.

SMILES strings stand for the structures. Numbering of substitutions follows the chain as printed.

Three compounds from article PMC12974487, “Inhibition of FicD-mediated AMPylation and deAMPylation by isoprenoid diphosphates” (Proceedings of the National Academy of Sciences of the …, 2026) can be followed below.

In general, EC50 refers to the concentration giving half of the maximal effect.

Source text for FicD^WT: To identify small-molecule metabolite interactions with FicD, we applied an unbiased high-throughput screening approach known as MIDAS ([44]).

Turning to `Nc1ncnc2c1ncn2[C@@H]1O[C@H](COP(=O)(O)OP(=O)(O)O)[C@@H](O)[C@H]1O` [ADP], the “MIDAS protein-metabolite interaction (enrichment/depletion)” value on FicD^WT is “significantly enriched”. Besides, on FicD^L258D (FicD^L258D, 5 mM MgCl2), the “maximal Tm shift at saturating ligand concentration” value was ~ 10 °C and the EC50 turned out to be 370 µM. Moreover, the “binding to FicD^L258D by DSF” value on FicD^L258D (absence of MgCl2) is “did not bind”. Further, the “binding to FicD^L258D by DSF” value at FicD^L258D (presence of 5 mM MgCl2) is “binding”.

Consider `CC(C)=CCC/C(C)=C/CC/C(C)=C/COP(=O)(O)OP(=O)(O)O` [FPP, farnesyl-pyrophosphate], for which the “MIDAS protein-metabolite interaction (enrichment/depletion)” value on FicD^WT was “significantly enriched”. Also, the “apparent binding (DSF EC50) fold tighter than that of ADP” value on FicD^L258D (FicD^L258D, 5 mM MgCl2) is given as 20 to 30 fold. Also, the results for the “binding to FicD^L258D by DSF” value on FicD^L258D (absence of MgCl2) and on FicD^L258D (presence of 5 mM MgCl2) were “did not bind” and “bound”, respectively.

Take `CC(C)=CCC/C(C)=C/COP(=O)(O)OP(=O)(O)O` [GPP, geranyl-pyrophosphate]: on FicD^WT, the “MIDAS protein-metabolite interaction (enrichment/depletion)” value is “significantly enriched”. On FicD^L258D (FicD^L258D, 5 mM MgCl2), the “apparent binding (DSF EC50) fold tighter than that of ADP” value is given as 20 to 30 fold and the EC50 turned out to be 14.8 µM.
